This note sets out measurements from BindingDB's records for doi:10.1021/jm00110a015 (Virginia Commonwealth University, 1991).

Where only a bound is given, the exact number is not on record here.

Test [1] in a line: Inhibition of [3H]DTG binding to Sigma opioid receptor.
A short description of test [2]: In vitro binding affinity at PCP binding site of sigma-opioid receptors using (+)-[3H]-MK-801 as radioligand.

As usually defined, the Ki is a dissociation constant, usually derived from enzyme kinetics or from competition with a known ligand. As a reminder, the IC50 is the concentration needed to halve the response being measured. A high value points to lower potency.

`CC(Cc1cccc(C(F)(F)F)c1)NCCCc1ccccc1` (configuration not stated) showed a Ki in test [1] of 3.9 nM. `CCCc1ccc(CC(C)NCCCc2ccccc2)cc1` (configuration not stated) had a Ki in test [1] of 6.2 nM.

`c1ccc(CCCNC2Cc3ccccc3C2)cc1` registered a Ki in test [1] of 27 nM. In test [1], `CC(Cc1cccc(Br)c1)NCCCc1ccccc1` (configuration not stated) registered a Ki of 6 nM. On the same count and under the same terms, then `c1ccc(CCCNC2CCCc3ccccc3C2)cc1` (configuration not stated), with 83 nM.

In the case of `COc1ccc(CC(C)NCCCc2ccccc2)cc1` (configuration not stated), the IC50 in test [2] is greater than 10 µM.

Regarding `CC(Cc1ccc(I)cc1)NCCCc1ccccc1` (configuration not stated), the IC50 in test [2] is greater than 10 µM.
